This is an account of results in US12157746B2, “Tetrahydro-1H-pyrazino[2,1-a]isoindolylquinoline compounds for the treatment of autoimmune disease” (F. HOFFMANN-LA ROCHE AG, priority 2018, dated 2024).

SMILES strings stand for the structures.

This assay has as its target T1, human TLR9 (Homo sapiens, UniProt Q9NR96).
T1 sequence (Q9NR96 26-1032): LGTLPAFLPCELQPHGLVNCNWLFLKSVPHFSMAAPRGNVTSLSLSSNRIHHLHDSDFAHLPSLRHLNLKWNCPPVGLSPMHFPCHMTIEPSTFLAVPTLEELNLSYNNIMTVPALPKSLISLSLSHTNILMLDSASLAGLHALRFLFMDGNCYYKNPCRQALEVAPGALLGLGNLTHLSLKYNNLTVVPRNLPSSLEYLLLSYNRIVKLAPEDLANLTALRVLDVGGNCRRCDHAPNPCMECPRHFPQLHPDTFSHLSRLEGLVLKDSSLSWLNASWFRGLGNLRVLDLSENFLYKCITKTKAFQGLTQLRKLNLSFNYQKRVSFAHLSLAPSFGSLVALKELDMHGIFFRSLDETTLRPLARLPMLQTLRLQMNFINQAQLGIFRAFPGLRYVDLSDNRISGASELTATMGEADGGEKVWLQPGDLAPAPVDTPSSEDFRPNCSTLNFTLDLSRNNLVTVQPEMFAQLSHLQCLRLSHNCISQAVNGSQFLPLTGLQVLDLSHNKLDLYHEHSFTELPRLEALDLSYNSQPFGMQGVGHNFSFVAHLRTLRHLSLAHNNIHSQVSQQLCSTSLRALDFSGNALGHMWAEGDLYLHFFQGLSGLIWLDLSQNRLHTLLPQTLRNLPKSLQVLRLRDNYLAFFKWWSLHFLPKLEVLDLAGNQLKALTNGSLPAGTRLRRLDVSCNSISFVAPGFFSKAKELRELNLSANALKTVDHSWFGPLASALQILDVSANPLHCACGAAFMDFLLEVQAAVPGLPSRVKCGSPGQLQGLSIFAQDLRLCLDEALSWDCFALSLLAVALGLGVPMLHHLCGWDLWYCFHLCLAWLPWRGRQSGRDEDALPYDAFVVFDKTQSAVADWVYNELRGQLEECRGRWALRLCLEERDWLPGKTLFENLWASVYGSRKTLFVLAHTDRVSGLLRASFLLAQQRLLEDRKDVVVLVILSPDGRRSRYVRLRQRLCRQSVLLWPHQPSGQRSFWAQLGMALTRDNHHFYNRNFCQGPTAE
Put plainly: HEK293-Blue-hTLR-9 cells assay. It counts as cell-based. To be noted: HEK293-Blue-hTLR9 cells, ODN2006 stimulation, 20 hrs, SEAP reporter; read-out: HEK/hTLR9 IC50. An excerpt:
HEK293-Blue-hTLR-9 Cells Assay:
A stable HEK293-Blue-hTLR-9 cell line was purchased from InvivoGen (Cat. #: hkb-htlr9, San Diego. California USA). These cells were originally designed for studying the stimulation of human TLR9 by monitoring the activation of NF-κB. A SEAP (secreted embryonic alkaline phosphatase) reporter gene was placed under the control of the IFN-β minimal promoter fused to five NF-κB and AP-1-binding sites. The SEAP was induced by activating NF-κB and AP-1 via stimulating HEK-Blue hTLR9 cells with TLR9 ligands. Therefore the reporter expression was declined by TLR9 antagonist under the stimulation of a ligand, such as ODN2006 (Cat. #: tlrl-2006-1, Invivogen, San Diego, California USA), for incubation of 20 hrs. The cell culture supernatant SEAP reporter activity was determined using QUANTI-Blue™ kit (Cat. #: rep-qb1, Invivogen, San Diego, California, USA) at a wavelength of 640 nm, a detection medium that turns purple or blue in the presence of alkaline phosphatase.
HEK293-Blue-hTLR9 cells were incubated at a density of 250.000-450,000 cells/mL in a volume of 170 μL in a 96-well plate in Dulbecco's Modified Eagle's medium (DMEM) containing 4.5 g/L glucose, 50 U/mL penicillin, […], […], 2 mM L-glutamine, 10% (v/v) heat-inactivated fetal bovine serum with addition of 20 μL test compound 1n a serial dilution in the presence of final DMSO at 1% and 10 μL of 20 uM ODN2006 in above DMEM, perform incubation under 37° C. in a CO2 incubator for 20 hrs. Then 20 μL of the supernatant from each well was incubated with 180 μL Quanti-blue substrate solution at 37° C. for 2 h and the absorbance was read at 620˜655 nm using a spectrophotometer. The signaling pathway that TLR9 activation leads to downstream NF-κB activation has been widely accepted, and therefore similar reporter assay was modified for evaluating TLR9 antagonist.
With `C[C@@H]1CN(c2ccc(C#N)c3ncccc23)C[C@@H]2c3ccc(N4CCOC5(CNC5)C4)cc3CN12` [Example 24, 5-[(4R,10bS)-4-methyl-8-(5-oxa-2,8-diazaspiro[3.5]nonan-8-yl)-3,4,6,10b-tetrahydro-1H-pyrazino[2,1-a]isoindol-2-yl]quinoline-8-carbonitrile], the IC50 is 90.5 nM.

Turning to `CN[C@@H]1CN(c2ccc3c(c2)CN2[C@H](C)CN(c4ccc(C#N)c5ncccc45)C[C@H]32)C[C@H]1O` [Example 43, 5-[(4R,10bS)-4-methyl-8-[(3R,4R)-3-hydroxy-4-(methylamino)pyrrolidin-1-yl]-3,4,6,10b-tetrahydro-1H-pyrazino[2,1-a]isoindol-2-yl]quinoline-8-carbonitrile], the IC50 was found to be 55.5 nM.

For the compound `C[C@@H]1CN(c2ccc(C#N)n3nccc23)C[C@@H]2c3ccc(N[C@H]4CNC[C@H]4F)cc3CN12` [Example 98, 4-[(4R,10bS)-8-[[(3S,4R)-4-fluoropyrrolidin-3-yl]amino]-4-methyl-3,4,6,10b-tetrahydro-1H-pyrazino[2,1-a]isoindol-2-yl]pyrazolo[1,5-a]pyridine-7-carbonitrile], the IC50 was found to be 197 nM.

As to `C[C@@H]1CN(c2ccc(C#N)c3ncccc23)C[C@@H]2c3ccc(N4CC5(CNCCO5)C4)cc3CN12` [Example 35, 5-[(4R,10bS)-4-methyl-8-(5-oxa-2,8-diazaspiro[3.5]nonan-2-yl)-3,4,6,10b-tetrahydro-1H-pyrazino[2,1-a]isoindol-2-yl]quinoline-8-carbonitrile], the IC50 was found to be 111 nM.

Consider `C[C@@H]1CN(c2ccc(C#N)n3nccc23)C[C@@H]2c3ccc(N4C[C@H](N)[C@@](C)(O)C4)cc3CN12` [Example 109, 4-[(4R,10bS)-8-[(3S,4S)-4-amino-3-hydroxy-3-methyl-pyrrolidin-1-yl]-4-methyl-3,4,6,10b-tetrahydro-1H-pyrazino[2,1-a]isoindol-2-yl]pyrazolo[1,5-a]pyridine-7-carbonitrile], for which the IC50 was found to be 160 nM.

As for `C[C@@H]1CN(c2ccc(C#N)c3ncccc23)C[C@@H]2c3ccc(N[C@@H]4CNC[C@H]4F)cc3CN12` [Example 33, 5-[(4R,10bS)-8-[[(3R,4R)-4-fluoropyrrolidin-3-yl]amino]-4-methyl-3,4,6,10b-tetrahydro-1H-pyrazino[2,1-a]isoindol-2-yl]quinoline-8-carbonitrile], the IC50 was found to be 100 nM.

On to `C[C@@H]1CN(c2ccc(C#N)c3ncccc23)C[C@@H]2c3ccc(N4CCNC[C@@H](O)C4)cc3CN12` [Example 53B, 5-[(4R,10bS)-8-[(6R)-6-hydroxy-1,4-diazepan-1-yl]-4-methyl-3,4,6,10b-tetrahydro-1H-pyrazino[2,1-a]isoindol-2-yl]quinoline-8-carbonitrile], for which the IC50 worked out at 68 nM.

As to `C[C@@H]1CN(c2ccc(C#N)c3ncccc23)C[C@@H]2c3ccc(N4C[C@H](N)[C@@H](F)C4)cc3CN12` [Example 49, 5-[(4R,10bS)-8-[(3S,4S)-3-amino-4-fluoro-pyrrolidin-1-yl]-4-methyl-3,4,6,10b-tetrahydro-1H-pyrazino[2,1-a]isoindol-2-yl]quinoline-8-carbonitrile], the IC50 was determined as 186 nM.

As for `C[C@@H]1CN(c2ccc(C#N)c3ncccc23)C[C@@H]2c3ccc(N4CCOCC(N)C4)cc3CN12` (stereo partly drawn) [Example 54, 5-[(4R,10bS)-8-(6-amino-1,4-oxazepan-4-yl)-4-methyl-3,4,6,10b-tetrahydro-1H-pyrazino[2,1-a]isoindol-2-yl]quinoline-8-carbonitrile], the IC50 was found to be 63.6 nM.

For the compound `C[C@@H]1CN(c2ccc(C#N)c3ncccc23)C[C@@H]2c3ccc(N4CCC(C)(N)CC4)cc3CN12` [Example 51, 5-[(4R,10bS)-8-(4-amino-4-methyl-1-piperidyl)-4-methyl-3,4,6,10b-tetrahydro-1H-pyrazino[2,1-a]isoindol-2-yl]quinoline-8-carbonitrile], the IC50 was determined as 139 nM.

In the case of `C[C@@H]1CN(c2ccc(C#N)c3ncccc23)C[C@@H]2c3ccc(N4CCOC[C@H](N)C4)cc3CN12` [Example 54A, 5-[(4R,10bS)-8-[(6R)-6-amino-1,4-oxazepan-4-yl]-4-methyl-3,4,6,10b-tetrahydro-1H-pyrazino[2,1-a]isoindol-2-yl]quinoline-8-carbonitrile], the IC50 is 92.2 nM.

Turning to `C[C@@H]1CN(c2ccc(C#N)n3nccc23)C[C@@H]2c3ccc(N4CC[C@@H](N)C4)cc3CN12` [Example 96, 4-[(4R,10bS)-8-[(3R)-3-aminopyrrolidin-1-yl]-4-methyl-3,4,6,10b-tetrahydro-1H-pyrazino[2,1-a]isoindol-2-yl]pyrazolo[1,5-a]pyridine-7-carbonitrile], the IC50 was determined as 193 nM.

Regarding `C[C@@H]1CN(c2ccc(C#N)c3ncccc23)C[C@@H]2c3ccc(NC4CNCCOC4)cc3CN12` (stereo partly drawn) [Example 56, 5-[(4R,10bS)-4-methyl-8-(1,4-oxazepan-6-ylamino)-3,4,6,10b-tetrahydro-1H-pyrazino[2,1-a]isoindol-2-yl]quinoline-8-carbonitrile], the IC50 came to 103 nM.

Consider `C[C@@H]1CN(c2ccc(C#N)n3ncc(F)c23)C[C@@H]2c3ccc(N4C[C@H](N)[C@@](C)(O)C4)cc3CN12` [Example 112, 4-[(4R,10bS)-8-[(3S,4S)-4-amino-3-hydroxy-3-methyl-pyrrolidin-1-yl]-4-methyl-3,4,6,10b-tetrahydro-1H-pyrazino[2,1-a]isoindol-2-yl]-3-fluoro-pyrazolo[1,5-a]pyridine-7-carbonitrile], for which the IC50 came to 227 nM.

Consider `C[C@@H]1CN(c2ccc(C#N)n3nccc23)C[C@@H]2c3ccc(N4CC[C@@](C)(N)C4)cc3CN12` [Example 103, 4-[(4R,10bS)-8-[(3R)-3-amino-3-methyl-pyrrolidin-1-yl]-4-methyl-3,4,6,10b-tetrahydro-1H-pyrazino[2,1-a]isoindol-2-yl]pyrazolo[1,5-a]pyridine-7-carbonitrile], for which the IC50 stood at 142 nM.

On to `C[C@@H]1CN(c2ccc(C#N)c3ncccc23)C[C@@H]2c3ccc(N4CCNC[C@](C)(O)C4)cc3CN12` [Example 55A, 5-[(4R,10bS)-8-[(6S)-6-hydroxy-6-methyl-1,4-diazepan-1-yl]-4-methyl-3,4,6,10b-tetrahydro-1H-pyrazino[2,1-a]isoindol-2-yl]quinoline-8-carbonitrile], for which the IC50 is 111 nM.

With `C[C@@H]1CN(c2ccc(C#N)c3ncccc23)C[C@@H]2c3ccc(N4CCNCC(C)(O)C4)cc3CN12` (stereo partly drawn) [Example 55, 5-[(4R,10S)-8-(6-hydroxy-6-methyl-1,4-diazepan-1-yl)-4-methyl-3,4,6,10b-tetrahydro-1H-pyrazino[2,1-a]isoindol-2-yl]quinoline-8-carbonitrile], the IC50 was 118 nM.

With `C[C@@H]1CN(c2ccc(C#N)c3ncccc23)C[C@@H]2c3ccc(N4CCNC[C@H](O)C4)cc3CN12` [Example 53A, 5-[(4R,10bS)-8-[(6S)-6-hydroxy-1,4-diazepan-1-yl]-4-methyl-3,4,6,10b-tetrahydro-1H-pyrazino[2,1-a]isoindol-2-yl]quinoline-8-carbonitrile], the IC50 came to 56 nM.

For `CO[C@@H]1CNC[C@H]1Nc1ccc2c(c1)CN1[C@H](C)CN(c3ccc(C#N)c4ncccc34)C[C@H]21` [Example 34, 5-[(4R,10bS)-8-[[(3R,4R)-4-methoxypyrrolidin-3-yl]amino]-4-methyl-3,4,6,10b-tetrahydro-1H-pyrazino[2,1-a]isoindol-2-yl]quinoline-8-carbonitrile], the IC50 was 66.6 nM.
